Assay results as given in ChEMBL document CHEMBL5584309, “Discovery of Novel Mcl-1 Inhibitors with a 3-Substituted-1H-indole-1-yl Moiety Binding to the P1-P3 Pockets to Induce Apoptosis in Acute Myeloid Leukemia Cells” (J Med Chem, 2024).
Each block holds one compound with its values, some of them ahead of it. Calls of active or inactive are those of the source. The rule behind the calls is not given here.

Columns and labels:
Bcl-2-related protein A1 = target: T1, Bcl-2-related protein A1 (Homo sapiens, UniProt Q16548); experiment: Binding affinity to Bfl-1 (unknown origin) pre-incubated for 30 mins followed by addition FAM-peptide further incubated for 20 mins by fluorescence polarization-based binding assay
T1 sequence (Q16548 whole entry): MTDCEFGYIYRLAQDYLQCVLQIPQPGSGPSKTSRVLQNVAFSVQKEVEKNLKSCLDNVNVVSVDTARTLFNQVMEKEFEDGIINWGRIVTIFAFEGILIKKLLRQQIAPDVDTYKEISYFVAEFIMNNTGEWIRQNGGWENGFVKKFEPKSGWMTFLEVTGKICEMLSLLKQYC

MOLM-13 = experiment: Antiproliferative activity against human MOLM-13 cells assessed as growth inhibition measured after 72 hrs by CCK-8 assay; assay type: functional, cell-based; settings: MOLM-13, 72 h
U-937 = experiment: Antiproliferative activity against human U-937 cells assessed as growth inhibition measured after 72 hrs by CCK-8 assay; assay type: functional, cell-based; settings: U-937, 72 h
HL-60 [1] = experiment: Induction of apoptosis in human HL-60 cells assessed as cleaved PARP at 10 to 20 uM measured after 24 hrs by Western blot analysis; assay type: functional, cell-based; settings: dose 10-20 µM
THP-1 [2] = experiment: Induction of apoptosis in human THP-1 cells assessed as cleaved PARP at 10 to 20 uM measured after 24 hrs by Western blot analysis; assay type: functional, cell-based; settings: dose 10-20 µM
HL-60 [3] = experiment: Induction of apoptosis in human HL-60 cells assessed as increase in Noxa measured after 24 hrs by Western blot analysis; assay type: functional, cell-based; settings: dose 10-20 µM
THP-1 [4] = experiment: Induction of apoptosis in human THP-1 cells assessed as increase in Noxa measured after 24 hrs by Western blot analysis; assay type: functional, cell-based; settings: dose 10-20 µM
THP-1 [5] = experiment: Induction of apoptosis in Noxa knockdown human THP-1 cells assessed as PARP cleavage at 20 uM measured after 24 hrs by […]; assay type: functional, cell-based
HL-60 [6] = experiment: Induction of apoptosis in human HL-60 cells assessed as viable cells at 2.5 uM measured after 24 hrs by Annexin V-FITC/propidium iodide double staining based assay (reference value: 92.68%); assay type: functional; settings: read-out: Activity
HL-60 [7] = experiment: Induction of apoptosis in human HL-60 cells assessed as necrotic cells at 2.5 uM measured after 24 hrs by Annexin V-FITC/propidium iodide double staining based assay (reference value: 0.18%); assay type: functional
HL-60 [8] = experiment: Induction of apoptosis in human HL-60 cells assessed as necrotic cells at 5 uM measured after 24 hrs by Annexin V-FITC/propidium iodide double staining based assay (reference value: 0.18%); assay type: functional
THP-1 [9] = experiment: Induction of apoptosis in human THP-1 cells assessed as viable cells at 5 uM measured after 24 hrs by Annexin V-FITC/propidium iodide double staining based assay (reference value: 93.02%); assay type: functional; settings: read-out: Activity
THP-1 [10] = experiment: Induction of apoptosis in human THP-1 cells assessed as late apoptotic cells at 5 uM measured after 24 hrs by Annexin V-FITC/propidium iodide double staining based assay (reference value: 2.81%); assay type: functional
THP-1 [11] = experiment: Induction of apoptosis in human THP-1 cells assessed as necrotic cells at 5 uM measured after 24 hrs by Annexin V-FITC/propidium iodide double staining based assay (reference value: 0.13%); assay type: functional
THP-1 [12] = experiment: Induction of apoptosis in human THP-1 cells assessed as necrotic cells at 10 uM measured after 24 hrs by Annexin V-FITC/propidium iodide double staining based assay (reference value: 0.13%); assay type: functional
THP-1 [13] = experiment: Induction of apoptosis in human THP-1 cells assessed as late apoptotic cells at 20 uM measured after 24 hrs by Annexin V-FITC/propidium iodide double staining based assay (reference value: 2.81%); assay type: functional
[14] = Tmax in Sprague-Dawley rat at 5 mg/kg, iv measured upto 24 hrs by LC-MS/MS analysis; assay type: ADME, organism-based; settings: in vivo
[15] = Cmax in Sprague-Dawley rat at 5 mg/kg, iv measured upto 24 hrs by LC-MS/MS analysis; assay type: ADME, organism-based; settings: in vivo
[16] = AUC (0 to t) in Sprague-Dawley rat at 5 mg/kg, iv measured upto 24 hrs by LC-MS/MS analysis; assay type: ADME, organism-based; settings: in vivo
[17] = AUC (0 to infinity) in Sprague-Dawley rat at 5 mg/kg, iv measured upto 24 hrs by LC-MS/MS analysis; assay type: ADME, organism-based; settings: in vivo
[18] = MRT (0 to t) in Sprague-Dawley rat at 5 mg/kg, iv measured upto 24 hrs by LC-MS/MS analysis; assay type: ADME, organism-based; settings: in vivo
[19] = AUC (0 to t) in Sprague-Dawley rat at 20 mg/kg, ip measured upto 24 hrs by LC-MS/MS analysis; assay type: ADME, organism-based; settings: in vivo
[20] = Bioavailability in Sprague-Dawley rat at 20 mg/kg, ip measured upto 24 hrs by LC-MS/MS analysis; assay type: ADME, organism-based; settings: in vivo
[21] = Toxicity in NOD SCID mouse assessed as change in body weight at 25 mg/kg, ip administered for 7 consecutive days; assay type: organism-based; settings: in vivo, 168 h, time 7 day
[22] = Toxicity in NOD SCID mouse assessed as change in heart tissue at 25 mg/kg, ip administered for 7 consecutive days by Hematoxylin-eosin (HE) staining based assay; assay type: organism-based; settings: in vivo, 168 h, time 7 day
[23] = Toxicity in NOD SCID mouse assessed as change in liver tissue at 25 mg/kg, ip administered for 7 consecutive days by Hematoxylin-eosin (HE) staining based assay; assay type: organism-based; settings: in vivo, 168 h, time 7 day
[24] = Toxicity in NOD SCID mouse assessed as change in lung tissue at 25 mg/kg, ip administered for 7 consecutive days by Hematoxylin-eosin (HE) staining based assay; assay type: organism-based; settings: in vivo, 168 h, time 7 day
HL-60 [25] = experiment: In vivo antitumor activity against human HL-60 cells xenografted in female NOD SCID mouse assessed as reduction in tumor volume at 80 mg/kg, ip once daily after 15 days of tumor inoculation treated for 12 days; assay type: functional, organism-based; settings: time 12.0 day
HL-60 [26] = experiment: In vivo antitumor activity against human HL-60 cells xenografted in female NOD SCID mouse assessed as tumor growth inhibition at 80 mg/kg, ip once daily after 15 days of tumor inoculation treated for 12 days relative to control; assay type: functional; settings: HL-60, 288 h, time 12 day, read-out: TGI
[27] = Toxicity in NOD SCID mouse xenografted with human HL-60 cells assessed as change in body weight at 80 mg/kg, ip once daily after 15 days of tumor inoculation treated for 12 days; assay type: organism-based; settings: in vivo, 288 h, time 12 day
[28] = Toxicity in NOD SCID mouse xenografted with human HL-60 cells assessed as change in liver tissue at 80 mg/kg, ip once daily after 15 days of tumor inoculation treated for 12 days; assay type: organism-based; settings: in vivo, 288 h, time 12 day
[29] = Toxicity in NOD SCID mouse xenografted with human HL-60 cells assessed as change in kidney tissue at 80 mg/kg, ip once daily after 15 days of tumor inoculation treated for 12 days; assay type: organism-based; settings: in vivo
[30] = Toxicity in NOD SCID mouse xenografted with human THP-1 cells assessed as change in spleen tissue at 40 to 80 mg/kg, ip once daily after 10 days of tumor inoculation treated for 14 days relative to control; assay type: organism-based; settings: in vivo, 336 h, dose 40-80 mg/kg, time 14 day
[31] = Toxicity in NOD SCID mouse xenografted with human THP-1 cells assessed as change in kidney tissue at 40 to 80 mg/kg, ip once daily after 10 days of tumor inoculation treated for 14 days relative to control; assay type: organism-based; settings: in vivo, 336 h, dose 40-80 mg/kg, time 14 day

IC50 (Bcl-2-related protein A1): > 10 µM
IC50 (MOLM-13): 8.52 µM
IC50 (U-937): 8.33 µM
Tmax [14]: 4.98 min
Cmax [15]: 46.5 µg/mL
AUC(0-t) at 24 h [16]: 18.7 µg·h/mL
AUC(0-inf) [17]: 18.8 µg·h/mL
MRT last at 24 h [18]: 68.4 min
AUC(0-t) at 24 h [19]: 54.6 µg·h/mL
bioavailability [20]: 74%
Structure (SMILES): Cc1cc(OCCCc2c(C(=O)O)n(CCN3CCOCC3)c3c(-c4ccccc4Cn4cc(CCN(CCN5CCOCC5)S(=O)(=O)c5ccc(F)cc5)c5ccccc54)cccc23)cc(C)c1Cl
Activity (HL-60 [1]): Active
Activity (THP-1 [2]): Active
Activity (HL-60 [3]): Dose-Dependent Effect
Activity (THP-1 [4]): Dose-Dependent Effect
Activity (THP-1 [5]): inactive
viability at 2.5 µM (HL-60 [6]): 92.8%
Activity (HL-60 [7]): 0.16%
Activity (HL-60 [8]): 0.57%
viability at 5 µM (THP-1 [9]): 93.2%
Activity (THP-1 [10]): 2.59%
Activity (THP-1 [11]): 0.15%
Activity (THP-1 [12]): 0.14%
Activity (THP-1 [13]): 6.3%
Activity [21]: Non-Toxic
Activity [22]: Non-Toxic
Activity [23]: Non-Toxic
Activity [24]: Non-Toxic
Activity (HL-60 [25]): Active
inhibition in vivo at 80 mg/kg (HL-60 [26]): 63.7%
Activity [27]: Non-Toxic
Activity [28]: Non-Toxic
Activity [29]: Non-Toxic
Activity [30]: Non-Toxic
Activity [31]: Non-Toxic

IC50 (Bcl-2-related protein A1): > 10 µM
IC50 (MOLM-13): 8.15 µM
IC50 (U-937): 4.71 µM
Structure (SMILES): Cc1nn(C)c(COc2ccc(N3CCN(S(=O)(=O)N(C)C)CC3)cc2)c1-c1cccc2c(CCCOc3cccc4ccccc34)c(C(=O)O)n(CCN3CCOCC3)c12
Activity (HL-60 [1]): Active
Activity (THP-1 [2]): Active
viability at 2.5 µM (HL-60 [6]): 96.2%
Activity (HL-60 [7]): 0.71%
Activity (HL-60 [8]): 1.28%
viability at 5 µM (THP-1 [9]): 94%
Activity (THP-1 [10]): 2.54%
Activity (THP-1 [11]): 0.15%
Activity (THP-1 [12]): 0.09%
Activity (THP-1 [13]): 24.35%
